Positions count from the first letter of the chain named. Entries after “also recorded” stand apart in the source; their conditions may differ.
Key:
[1] = target: T1, SIRT1 (Homo sapiens, UniProt Q96EB6); assay: SIRT1 enzyme activity test (deacetylase inhibition); assay type: biochemical
T1 sequence (Q96EB6 1-747): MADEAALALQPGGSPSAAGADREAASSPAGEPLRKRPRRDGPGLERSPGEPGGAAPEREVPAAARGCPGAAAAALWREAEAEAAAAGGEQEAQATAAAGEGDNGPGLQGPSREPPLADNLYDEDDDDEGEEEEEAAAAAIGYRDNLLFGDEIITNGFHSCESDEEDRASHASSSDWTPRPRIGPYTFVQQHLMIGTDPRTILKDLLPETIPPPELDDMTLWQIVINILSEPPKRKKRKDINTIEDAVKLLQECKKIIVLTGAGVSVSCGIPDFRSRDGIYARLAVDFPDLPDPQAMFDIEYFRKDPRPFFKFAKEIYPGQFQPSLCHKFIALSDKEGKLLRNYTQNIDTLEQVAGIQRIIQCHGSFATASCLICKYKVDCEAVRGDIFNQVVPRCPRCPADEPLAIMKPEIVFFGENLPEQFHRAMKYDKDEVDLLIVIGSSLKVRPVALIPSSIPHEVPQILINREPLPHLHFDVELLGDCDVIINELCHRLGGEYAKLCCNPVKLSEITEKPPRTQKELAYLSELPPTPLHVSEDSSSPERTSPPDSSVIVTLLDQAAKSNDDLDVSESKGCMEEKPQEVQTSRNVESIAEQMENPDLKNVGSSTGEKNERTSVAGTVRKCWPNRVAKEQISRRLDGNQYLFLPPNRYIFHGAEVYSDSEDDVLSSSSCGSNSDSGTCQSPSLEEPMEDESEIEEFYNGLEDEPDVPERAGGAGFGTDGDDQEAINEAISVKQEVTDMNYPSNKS

[2] = target: T1, SIRT1; assay: Enzyme kinetic reaction test (inhibition type, Michaelis-Menten and Lineweaver-Burk plots); assay type: biochemical
[3] = target: T2, mini-hSIRT1 protein (SIRT1 Cy5) (Homo sapiens, UniProt Q96EB6); assay: Microscale thermophoresis (MST) binding experiment
T2 sequence (Q96EB6 with tags, fused parts or gaps limits assumed): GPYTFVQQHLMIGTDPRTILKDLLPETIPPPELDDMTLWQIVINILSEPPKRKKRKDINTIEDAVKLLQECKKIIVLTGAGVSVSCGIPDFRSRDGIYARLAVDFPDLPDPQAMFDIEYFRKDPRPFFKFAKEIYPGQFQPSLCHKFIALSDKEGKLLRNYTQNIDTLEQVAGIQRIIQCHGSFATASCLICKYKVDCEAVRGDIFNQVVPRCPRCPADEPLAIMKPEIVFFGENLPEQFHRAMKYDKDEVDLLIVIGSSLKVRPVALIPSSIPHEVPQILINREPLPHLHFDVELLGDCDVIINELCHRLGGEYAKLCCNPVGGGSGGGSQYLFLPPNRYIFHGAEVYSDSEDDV

[4] = target: T3, SIRT1 N346A (Homo sapiens, UniProt Q96EB6, N346A); assay: Inhibitory constant on SIRT1 mutant N346A; assay type: biochemical
T3 construct: made in house
T3 sequence (Q96EB6 1-747 N346A): T1 sequence (Q96EB6 1-747) with N346A

[5] = target: T4, SIRT1 I347A (Homo sapiens, UniProt Q96EB6, I347A); assay: Inhibitory constant on SIRT1 mutant I347A; assay type: biochemical
T4 construct: made in house
T4 sequence (Q96EB6 1-747 I347A): T1 sequence (Q96EB6 1-747) with I347A

[6] = fixed Abz polypeptide, with increasing S3 concentration
[7] = fixed NAD+, with increasing S3 concentration

SMILES: COc1cc(C=C2C(=O)OC(c3ccccc3)OC2=O)cc(Br)c1O (centres unmarked) [Compound S3, 5-(3-bromo-4-hydroxy-5-methoxybenzylidene) -2-phenyl-1,3-dioxane-4,6-dione]
- concentration dependence of SIRT1 inhibition ([1]; Figure 1, in vitro): 以浓度依赖性方式抑制SIRT1酶活; also recorded: inhibits SIRT1 activity in a concentration-dependent manner
- IC50 ([1]; Table 2, 1 μM SIRT1, 500 μM NAD+, 10 μM substrate peptide, 37 °C, 30 min): 1310 ± 260 nM
- Inhibition of SIRT1 deacylation (IC50) ([1]; Table 3, SITR1 [sic], 1 μM SIRT1, 500 μM NAD+, 10 μM substrate peptide): 1.31 ± 0.26
- apparent Michaelis constant Km′ for NAD+ [2, 6]: 不变
- initial velocity V0, NAD+ varied [2, 6]: 减小
- apparent Michaelis constant Km′ for Abz polypeptide [2, 7]: 减小
- initial velocity V0, substrate Abz polypeptide varied [2, 7]: 减小
- type of inhibition toward NAD+ ([2]; fixed acetylated peptide 30 μM, varied NAD+ 31.25-1000 μM, 0.5 μM SIRT1): 非竞争性抑制; also recorded: NAD +的非竞争性抑制剂
- binding site of compound on SIRT1 relative to substrate polypeptide and NAD+ sites ([2]; inferred from kinetics): 可能在底物多肽的结合位点; also recorded: 不在NAD +的结合位点
- type of inhibition toward NAD+ ([3]; MST, Figure 3): non-competitive inhibitor of NAD +
- type of inhibition/binding toward Abz polypeptide ([3]; MST, Figure 3): competitive inhibitor of Abz polypeptide; also recorded: competitively binds to the binding site of the substrate polypeptide Abz
- Kd of binding to SIRT1 (change) ([3]; with 500 μM Abz polypeptide): increased
- binding curve with SIRT1 protein (shift), with Abz polypeptide ([3]; with 500 μM Abz polypeptide): shifted to the right
- binding curve with SIRT1 protein (shift), with NAD+ ([3]; with 5 mM NAD+): did not change significantly
- Ki ([4]; mutant N346A): 2470 nM
- sensitivity of mutant protein to compound S3 ([4]; mutation of residue 346 (so in the source)): 敏感性降低
- Ki [5]: 670 nM
